Type in all cases: in vivo
Assay [1] relates to Alopecurus myosuroides (ALOMY). The assay can be described thus: Post-emergence biological efficacy, glasshouse pot test. The following applies: 312 h, Rate 1,000 g/ha, post-emergence spray, evaluated after 13 days (100=total damage to plant; 0=no damage to plant), read-out: Percentage damage caused to weed species, post-emergence, ALOMY. The procedure, abridged:
(§1)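 Plants were sown in standard soil and grown 8 days in a glasshouse (24/16° C. day/night, 14 hours light, 65% humidity), then sprayed post-emergence at 1000 or 250 g/ha from acetone/water (50:50) with 0.5% Tween 20. Damage was scored visually after 13 days (0 = none, 100 = total).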

Assay [2] relates to Solanum nigrum (SOLNI). Described as above. Particulars: 312 h, Rate 1,000 g/ha, post-emergence spray, evaluated after 13 days (100=total damage to plant; 0=no damage to plant), read-out: Percentage damage caused to weed species, post-emergence, SOLNI. The procedure, abridged: as §1
In assay [3] the test system is Setaria faberi (SETFA). The description is as above. The following applies: 312 h, Rate 1,000 g/ha, post-emergence spray, evaluated after 13 days (100=total damage to plant; 0=no damage to plant), read-out: Percentage damage caused to weed species, post-emergence, SETFA. A digest of the protocol: as §1
Assay [4] has as its system Echinochloa crus-galli (ECHCG). The assay is described as above. Particulars: 312 h, Rate 1,000 g/ha, post-emergence spray, evaluated after 13 days (100=total damage to plant; 0=no damage to plant), read-out: Percentage damage caused to weed species, post-emergence, ECHCG. A digest of the protocol:
as §1

In assay [5] the test system is Amaranthus retoflexus (AMARE). Described as above. Particulars: Amaranthus retroflexus, 312 h; Rate 1,000 g/ha; post-emergence spray; evaluated after 13 days (100=total damage to plant; 0=no damage to plant); read-out: Percentage damage caused to weed species, post-emergence, AMARE. A digest of the protocol:
as §1

Assay [6] relates to Ipomea hederaceae (IPOHE). Described as above. Particulars: Ipomoea hederacea, 312 h; Rate 1,000 g/ha; post-emergence spray; evaluated after 13 days (100=total damage to plant; 0=no damage to plant); read-out: Percentage damage caused to weed species, post-emergence, IPOHE. The procedure, abridged:
as §1

In assay [7] the test system is Alopecurus myosuroides (ALOMY). The experiment in a line: Pre-emergence biological efficacy, glasshouse pot test. The following applies: 312 h, pre-emergence, rate 1,000 g/ha, evaluated after 13 days (100=total damage to plant; 0=no damage), read-out: Percentage damage caused to weed species, ALOMY. A digest of the protocol:
(§2)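 Test compound, formulated in acetone/water (50:50) containing 0.5% Tween 20 and diluted into an aqueous spray, was applied at 1000 or 250 g/ha to pots sown one day earlier. Injury was rated after 13 days, 100 meaning total damage.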

Assay [8] has as its system Solanum nigrum (SOLNI). Described as above. Particulars: 312 h, pre-emergence, rate 1,000 g/ha, evaluated after 13 days (100=total damage to plant; 0=no damage), read-out: Percentage damage caused to weed species, SOLNI. The procedure, abridged:
as §2

Assay [9] concerns Setaria faberi (SETFA). Described as above. Particulars: 312 h, pre-emergence, rate 1,000 g/ha, evaluated after 13 days (100=total damage to plant; 0=no damage), read-out: Percentage damage caused to weed species, SETFA. A digest of the protocol: as §2
For assay [10], the system named is Echinochloa crus-galli (ECHCG). The description is as above. The following applies: 312 h, pre-emergence, rate 1,000 g/ha, evaluated after 13 days (100=total damage to plant; 0=no damage), read-out: Percentage damage caused to weed species, ECHCG. A digest of the protocol:
as §2

For assay [11], the system named is Amaranthus retoflexus (AMARE). Described as above. The following applies: Amaranthus retroflexus, 312 h; pre-emergence, rate 1,000 g/ha, evaluated after 13 days (100=total damage to plant; 0=no damage); read-out: Percentage damage caused to weed species, AMARE. The procedure, abridged: as §2
For assay [12], the system named is Ipomea hederaceae (IPOHE). The assay is described as above. The following applies: Ipomoea hederacea, 312 h; pre-emergence, rate 1,000 g/ha, evaluated after 13 days (100=total damage to plant; 0=no damage); read-out: Percentage damage caused to weed species, IPOHE. A digest of the protocol:
as §2

Consider `COC(=O)c1nc(-c2ccc(Cl)c(F)c2)nc(NCc2ccco2)c1Cl` [Compound 222-48, 5-Chloro-2-(4-chloro-3-fluorophenyl)-4-(furan-2-ylmethyl-amino)-6-methoxycarbonyl-pyrimidine], for which the pest or weed control at 1000 g/ha turned out to be 30% in assay [1]; 90% in [2]; 40% in [3]; 40% in [4]; 100% in assay [5]; 80% in assay [6]. In addition, the pest or weed control at 1000 g/ha in assay [7] is 30%; in [8] it was 100%; in assay [9], 20%; in [10], 50%; in assay [11], 100%; in [12] it was 70%.

Take `COC(=O)c1nc(-c2ccc(Cl)c(F)c2Cl)nc(NCc2ccco2)c1Cl` [Compound 224-48, 5-Chloro-2-(2,4-dichloro-3-fluorophenyl)-4-(furan-2-ylmethyl-amino)-6-methoxy-carbonylpyrimidine]: the pest or weed control at 1000 g/ha in assay [1] was 60%; in assay [2], 90%; in assay [3], 80%; in assay [4] it was 40%; in [5] it was 100%; in assay [6] it was 70%. Further, the pest or weed control at 1000 g/ha in [7] worked out at 60%; in assay [8] it was 90%; in assay [9], 50%; in assay [10], 0%; in assay [11] it was 100%; in [12] it was 70%.

Regarding `COC(=O)c1nc(-c2ccc(Cl)c(F)c2F)nc(NCc2ccco2)c1Cl` [Compound 225-48, 5-Chloro-2-(4-chloro-2,3-difluorophenyl)-4-(furan-2-ylmethyl-amino)-6-methoxy-carbonylpyrimidine], the pest or weed control at 1000 g/ha turned out to be 60% in [1]; 90% in assay [2]; 80% in assay [3]; 60% in assay [4]; 100% in assay [5]; 90% in [6]. Besides, the pest or weed control at 1000 g/ha in [7] was determined as 60%; in [8] it was 90%; in [9] it was 80%; in assay [10], 30%; in assay [11], 100%; in [12], 70%.

`COC(=O)c1nc(-c2ccc(Cl)c(Cl)c2F)nc(NCc2ccco2)c1Cl` [Compound 226-48, 5-Chloro-2-(3,4-dichloro-2-fluorophenyl)-4-(furan-2-ylmethyl-amino)-6-methoxy-carbonylpyrimidine]: the pest or weed control at 1000 g/ha in assay [1] was 50%; in assay [2], 90%; in assay [3], 80%; in [4] it was 60%; in assay [5], 100%; in [6] it was 60%. Moreover, the pest or weed control at 1000 g/ha in assay [7] came to 50%; in assay [8], 100%; in assay [9] it was 40%; in assay [10] it was 30%; in assay [11], 100%; in assay [12] it was 30%.

`COC(=O)c1nc(-c2cc(Cl)c(Cl)cc2Cl)nc(NCc2ccco2)c1Cl` [Compound 228-48, 5-Chloro-4-(furan-2-ylmethylamino)-6-methoxycarbonyl-2-(2,4,5-trichloro-phenyl)pyrimidine]: the pest or weed control at 1000 g/ha in assay [1] turned out to be 20%; in assay [2], 30%; in assay [3] it was 20%; in assay [4], 0%; in assay [5], 70%; in assay [6], 10%. Besides, the pest or weed control at 1000 g/ha in [7] came to 0%; in [8], 0%; in [9] it was 0%; in [10] it was 0%; in assay [11] it was 30%; in [12], 0%.

For `COC(=O)c1nc(-c2ccc(Cl)c(OC)c2)nc(NCc2ccco2)c1Cl` [Compound 229-48, 5-Chloro-2-(4-chloro-3-methoxyphenyl)-4-(furan-2-ylmethyl-amino)-6-methoxy-carbonylpyrimidine], the pest or weed control at 1000 g/ha was 10% in assay [1]; 80% in [2]; 60% in [3]; 30% in [4]; 100% in [5]; 30% in [6]. The pest or weed control at 1000 g/ha in [7] was 10%; in [8], 90%; in [9], 30%; in assay [10] it was 0%; in assay [11], 100%; in assay [12] it was 0%.

Turning to `COC(=O)c1nc(-c2ccc(Cl)c(C(F)(F)F)c2F)nc(NCc2ccco2)c1Cl` [Compound 230-48, 5-Chloro-2-(4-chloro-2-fluoro-3-trifluoro-methylphenyl)-4-(furan-2-ylmethyl-amino)-6-methoxy-carbonylpyrimidine], the pest or weed control at 1000 g/ha is 30% in assay [1]; 80% in [2]; 70% in assay [3]; 90% in assay [4]; 100% in [5]; 60% in assay [6]. In addition, the pest or weed control at 1000 g/ha was found to be 30% in [7]; 70% in assay [8]; 50% in assay [9]; 20% in [10]; 70% in [11]; 50% in assay [12].

Take `COC(=O)c1nc(-c2ccc(Cl)c(Cl)c2Cl)nc(NCc2ccco2)c1Cl` [Compound 231-48, 5-Chloro-4-(furan-2-ylmethylamino)-6-methoxycarbonyl-2-(2,3,4-trichloro-phenyl)pyrimidine]: the pest or weed control at 1000 g/ha was 50% in assay [1]; 80% in [2]; 70% in [3]; 30% in assay [4]; 100% in assay [5]; 70% in assay [6]. For the same compound, the pest or weed control at 1000 g/ha in assay [7] is 40%; in assay [8], 40%; in [9], 20%; in [10] it was 30%; in assay [11], 100%; in assay [12], 10%.
